Reference: patent US11213560B2, “Method of promoting wound healing with sinetirucallol” (NATIONAL DONG HWA UNIVERSITY, priority 2015, dated 2022)

Legend:
RAW 264.7 cells = assay: MTT cell viability of RAW264.7 cells (Example 2); type: cell-based, murine; conditions: extract 5, 20, 50, 100 μg/mL or sinetirucallol 0.1, 1, 5, 10 μM for 24 h
Protocol: (§1) The RAW264.7 murine macrophage cell line was purchased from the Bioresource Collection and Research Center (BCRC, Taiwan). The cells were incubated at 37° C. in 5% CO2 in Dulbecco's modified Eagle's medium (DMEM; Gibco Inc., NY, USA) supplemented with 100 U/mL penicillin, 100 μg/mL sodium pyruvate and 10% fetal bovine serum (FBS; Gibco Inc.).
In order to examine the bio-compatibility of the extract of the present disclosed composition, a MTT assay (3-(4,5-dimethylthiazol-2-yl)-2,5-diphenyltetrazolium bromide (MTT, Invitrogen), a colorimetric based assay) was performed.
Briefly, 8×10^3 of cells per well were seeded in 96-well plates and were incubated in 5% CO2 at 37° C. for overnight. Cells were treated different concentrations (5, 20, 50, and 100 μg/mL) of Spiranthes sinensis extract for 24 h, after incubation 20 μL (5 mg/mL) of MTT solution was added per well and further incubated for 4 h. The media was removed, and formazan was solubilized by adding 100 μl/well of DMSO (Sigma-Aldrich) and OD was measured at 570 nm using a microplate reader (ELISA reader, Thermo Labsystems). Percentage of viable cells was estimated by comparing with untreated control cells. The average absorbance value of the control cells was taken as 100% viability.

[1] = test system: LPS-induced RAW 264.7 cells; assay: Real-time PCR of inflammatory cytokine transcription in LPS-induced RAW 264.7 cells; type: cell-based, murine; conditions: LPS 1 μg/mL; 5 μM SI (tested 0.1, 1, 5, 10 μM)
Protocol: as §1
The cells were also treated with 0.01% DMSO as a vehicle control. The cells were seeded into 12-well plates at a density of 6×10^5 cells/well in 24 h then incubated with 0.1% BSA with serum-free medium 3 h, treated with different concentrations of Spiranthes sinensis extract or SI then incubated in the presence of LPS (1 μg/mL) for 4 h.
Total RNA was prepared from freshly harvested RAW 264.7 cells and was isolated using Trizol extraction. RNA samples were frozen at −80° C. until analyzed. cDNA was then made using an M-MLV RT kit (Invitrogen, Carlsbad, Calif.) according to the manufacturer's protocol. The expression of selected cytokine and related genes in mouse tissue and in RAW264.7 cells exposed to the present Spiranthes sinensis extract was determined by the SensiFAST SYBR No-ROX Kit (BIOLINE, London, UK), as described previously. PCR cycling conditions for TNF-Alpha included a 95° C. heating step for 2 min at the beginning of every run. […] In order to quantify expression represented by each of the PCR products, an internal reference by β-actin.

[2] = test system: LPS-induced RAW264.7 cells; assay: Nitrite quantification of NO production in LPS-induced RAW264.7 cells; type: cell-based, murine; conditions: LPS 1 μg/mL 12 h; extract 5, 20, 50, 100 μg/mL or SI 0.1, 1, 5, 10 μM; dose-dependent manner
Protocol: as §1
(§2) The cells were also treated with 0.01% DMSO as a vehicle control. The cells were seeded into 12-well plates at a density of 6×10^5 cells/well in 24 h then incubated with 0.1% BSA with serum-free medium 3 h, treated with […]
NO production from activated RAW 264.7 cells was determined by measuring the amount of nitrite, a stable oxidation product of NO. An aliquot of the conditioned medium was mixed with an equal volume of 1% sulfanilamide in water and 0.1% N-1-naphthylethylenediamine dihydrochloride in 5% phosphoric acid. The absorbance was determined at 550 nm. Sodium nitrite, diluted in culture media at concentrations of 10-100 μM, was used to generate a standard curve.

COX-2 = assay: Western blot of COX-2 in LPS-induced RAW264.7 cells; type: cell-based, murine; conditions: LPS 1 μg/mL, 12 h; extract 5-100 μg/mL or SI 0.1-10 μM; dose-dependent manner
Protocol: as §1, §2
(§3) The concentrations of proteins from whole-cell lysates were determined by Bradford assay. Equal amounts of protein were separated by SDS-PAGE and transferred onto nitrocellulose membranes. […] With the use of horseradish peroxidase-conjugated secondary anti-rabbit or anti-mouse antibody, bound antibodies were detected by enhanced chemiluminescence. The signals were monitored using Western Lightning™ Plus-ECL (Perkin Elmer Life Sciences) and the PVDF membrane was exposed to Luminescent image analyzer LAS-3000 (Fujifilm, Minato, Tokyo, Japan). Acquired data were analyzed and compared the difference among treatments.

[3] = test system: CFA-induced inflammation mice; assay: CFA-induced paw inflammation in mice, swelling index; type: in vivo, C57BL/6 mice
p-ERK = assay: Western blot of phosphorylated ERK in LPS-induced RAW264.7 cells; type: cell-based, murine; conditions: LPS 1 μg/mL, 12 h; extract 5-100 μg/mL or SI 0.1-10 μM; dose-dependent manner
Protocol: as §1, §2, §3

NFκB = assay: Western blot of NFκB in LPS-induced RAW264.7 cells; type: cell-based, murine; conditions: LPS 1 μg/mL, 12 h; extract 5-100 μg/mL or SI 0.1-10 μM; dose-dependent manner
Protocol: as §1, §2, §3

## C[C@H](CC[C@@H]1CC1(C)C)[C@H]1CC[C@@]2(C)C3CCC4C(C)(C)[C@H](O)CC[C@@]4(C)C3=CC[C@]12C (stereo partly drawn) [sinetirucallol]
RAW 264.7 cells
  Cell viability (MTT assay): not affected
[1]
  inhibition of inflammatory cytokine transcription: better inhibition
[2]
  NO production (nitrite): inhibitory effect
COX-2
  LPS-induced expression of COX-2: diminished
[3]; 0.44 μg/kg SI compared with 4.4 μg/kg SI
  anti-inflammatory effect, low versus high dose: better effect than that of 4.4 μg/kg SI
[3]; SI group (4.4, 2.2, 0.44 μg/kg i.p.)
  foot swelling recovery compared with 0.3 mg/kg triamcinolone: less foot swelling recovery than that of 0.3 mg/kg triamcinolone
[3]; intraperitoneal injection 3 times Day 0 to Day 2, extract 0.5, 0.3, 0.06 mg/kg b.w, SI 4.4, 2.2, 0.44 μg/kg, compared with CFA group
  anti-inflammatory effect (swelling index of foot): much better than that of Spiranthes sinensis extract
p-ERK
  LPS-induced phosphorylation of ERK: diminished
NFκB
  LPS-induced expression of NFκB: diminished
